Target: T1, CCR2 (Homo sapiens, UniProt P41597)
T1 construct: expressed in transfected cells
Assay: CCR2 calcium activity assay on FLIPR Tetra in HEK-Gqi5 cells stably expressing CCR2
Type: cell-based
Procedure: HEK-Gqi5 cells stably expressing CCR2 were cultured in (DMEM high glucose, 10% FBS, 1% PSA, 400 μg/ml geneticin and 50 μg/ml hygromycin. Appropriate positive control chemokines (MCP-1, MIP1A or RANTES) was used as the positive control agonist for screening compound-induced calcium activity assayed on the FLIPR^Tetra. The drug plates were prepared in 384-well microplates using the EP3 and the MuItiPROBE robotic liquid handling systems. Compounds were synthesized and tested for CCR2 activity.

T1 sequence (P41597 whole entry, species assumed): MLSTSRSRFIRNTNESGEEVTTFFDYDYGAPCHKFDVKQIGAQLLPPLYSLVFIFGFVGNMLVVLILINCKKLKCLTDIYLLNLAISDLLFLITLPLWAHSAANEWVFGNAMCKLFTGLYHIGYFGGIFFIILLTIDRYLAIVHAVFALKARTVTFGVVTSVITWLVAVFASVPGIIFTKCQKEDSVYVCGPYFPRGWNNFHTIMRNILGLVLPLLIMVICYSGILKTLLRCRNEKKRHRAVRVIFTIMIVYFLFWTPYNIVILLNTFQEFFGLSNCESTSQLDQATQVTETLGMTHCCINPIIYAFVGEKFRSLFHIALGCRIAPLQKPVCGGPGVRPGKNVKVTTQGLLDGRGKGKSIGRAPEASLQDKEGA

SMILES	CCR2 % ANTAG	IC50
CC(=O)Nc1ccc(S(=O)(=O)Nc2ccc(Cl)cc2NS(=O)(=O)c2ccc3c(c2)c(=O)sn3C)cc1 [N-(4-{[(4-chloro-2-{[(1-methyl-3-oxo-1,3-dihydro-2,1-benzisothiazol-5-yl)sulfonyl]amino}phenyl)amino]sulfonyl}phenyl)acetamide]	80%	2230 nM
Cc1ccc(S(=O)(=O)Nc2ccc(Cl)cc2NS(=O)(=O)c2ccc3c(c2)c(=O)sn3C)cc1 [N-(5-chloro-2-{[(4-methylphenyl)sulfonyl]amino}phenyl)-1-methyl-3-oxo-1,3-dihydro-2,1-benzisothiazole-5-sulfonamide]	95%	680 nM
Cc1ccc(S(=O)(=O)Nc2cc(Cl)c(Cl)cc2NS(=O)(=O)c2ccc3c(c2)c(=O)sn3C)s1 [N-(4,5-dichloro-2-{[(5-methyl-2-thienyl)sulfonyl]amino}phenyl)-1-methyl-3-oxo-1,3-dihydro-2,1-benzisothiazole-5-sulfonamide]	95%	851 nM
Cn1sc(=O)c2cc(S(=O)(=O)N3CCCC(NS(=O)(=O)c4cccs4)C3)ccc21 (stereo not drawn) [N-{1-[(1-methyl-3-oxo-1,3-dihydro-2,1-benzisothiazol-5-yl)sulfonyl]piperidin-3-yl}thiophene-2-sulfonamide]	54%	
Cn1sc(=O)c2cc(S(=O)(=O)Nc3cc(Cl)c(Cl)cc3NS(=O)(=O)c3cc(Cl)c(Cl)s3)ccc21 [N-(4,5-dichloro-2-{[(4,5-dichloro-2-thienyl)sulfonyl]amino}phenyl)-1-methyl-3-oxo-1,3-dihydro-2,1-benzisothiazole-5-sulfonamide]	103%	2340 nM
Cn1sc(=O)c2cc(S(=O)(=O)Nc3ccccc3NS(=O)(=O)c3c[nH]cn3)ccc21 [N-{2-[(1H-imidazol-4-ylsulfonyl)amino]phenyl}-1-methyl-3-oxo-1,3-dihydro-2,1-benzisothiazole-5-sulfonamide]	0%	> 8300 nM
Cn1sc(=O)c2cc(S(=O)(=O)Nc3ccccc3NC(=O)Nc3cccs3)ccc21 [1-methyl-3-oxo-N-(2-{[(2-thienylamino)carbonyl]amino}phenyl)-1,3-dihydro-2,1-benzisothiazole-5-sulfonamide]	58%	2530 nM
Cn1sc(=O)c2cc(S(=O)(=O)NC(C)(C)CNS(=O)(=O)c3cccs3)ccc21 [N-{1,1-dimethyl-2-[(2-thienylsulfonyl)amino]ethyl}-1-methyl-3-oxo-1,3-dihydro-2,1-benzisothiazole-5-sulfonamide]	20%	2490 nM
Cn1sc(=O)c2cc(S(=O)(=O)Nc3cccc(OC(F)(F)F)c3)ccc21 [1-methyl-3-oxo-N-[3-(trifluoromethoxy)phenyl]-1,3-dihydro-2,1-benzisothiazole-5-sulfonamide]	92%	920 nM
COc1cc(Cl)c(C)cc1NS(=O)(=O)c1ccc2c(c1)c(=O)sn2C [N-(4-chloro-2-methoxy-5-methylphenyl)-1-methyl-3-oxo-1,3-dihydro-2,1-benzisothiazole-5-sulfonamide]	0%	> 8300 nM
Cn1sc(=O)c2cc(S(=O)(=O)N[C@@H]3CCCC[C@H]3NC(=O)c3cccs3)ccc21 (relative stereo) [rel-N-[(1R,2R)-2-{[(1-methyl-3-oxo-1,3-dihydro-2,1-benzisothiazol-5-yl)sulfonyl]amino}cyclohexyl]thiophene-2-carboxamide]	46%	
Cn1sc(=O)c2cc(S(=O)(=O)Nc3ccccc3NS(=O)(=O)c3cccnc3)ccc21 [1-methyl-3-oxo-N-{2-[(pyridin-3-ylsulfonyl)amino]phenyl}-1,3-dihydro-2,1-benzisothiazole-5-sulfonamide]	77%	
Cn1sc(=O)c2cc(S(=O)(=O)NCC(C)(C)NS(=O)(=O)c3cccs3)ccc21 [1-methyl-N-{2-methyl-2-[(2-thienylsulfonyl)amino]propyl}-3-oxo-1,3-dihydro-2,1-benzisothiazole-5-sulfonamide]	30%	
Cn1sc(=O)c2cc(S(=O)(=O)Nc3ccccc3NS(=O)(=O)c3ccoc3)ccc21 [N-{2-[(3-furylsulfonyl)amino]phenyl}-1-methyl-3-oxo-1,3-dihydro-2,1-benzisothiazole-5-sulfonamide]	73%	
CC(C)Oc1ccc(S(=O)(=O)Nc2ccc(Cl)cc2NS(=O)(=O)c2ccc3c(c2)c(=O)sn3C)cc1 [N-(5-chloro-2-{[(4-isopropoxyphenyl)sulfonyl]amino}phenyl)-1-methyl-3-oxo-1,3-dihydro-2,1-benzisothiazole-5-sulfonamide]	72%	
COc1cccc(NS(=O)(=O)c2ccc3c(c2)c(=O)sn3C)c1OC [N-(2,3-dimethoxyphenyl)-1-methyl-3-oxo-1,3-dihydro-2,1-benzisothiazolesulfonamide]	55%	3830 nM
Cn1sc(=O)c2cc(S(=O)(=O)NC3CCCN(S(=O)(=O)c4cccs4)C3)ccc21 (stereo not drawn) [1-methyl-3-oxo-N-[1-(2-thienylsulfonyl)piperidin-3-yl]-1,3-dihydro-2,1-benzisothiazole-5-sulfonamide]	39%	
CC(C)c1ccc(S(=O)(=O)Nc2ccc(Cl)cc2NS(=O)(=O)c2ccc3c(c2)c(=O)sn3C)cc1 [N-(5-chloro-2-{[(4-isopropylphenyl)sulfonyl]amino}phenyl)-1-methyl-3-oxo-1,3-dihydro-2,1-benzisothiazole-5-sulfonamide]	94%	985 nM
CN(C)c1ccc(S(=O)(=O)Nc2ccc(Cl)cc2NS(=O)(=O)c2ccc3c(c2)c(=O)sn3C)cc1 [N-[5-chloro-2-({[4-(dimethylamino)phenyl]sulfonyl}amino)phenyl]-1-methyl-3-oxo-1,3-dihydro-2,1-benzisothiazole-5-sulfonamide]	64%	1650 nM
Cn1sc(=O)c2cc(S(=O)(=O)Nc3cccc4c3OC(F)(F)O4)ccc21 [N-(2,2-difluoro-1,3-benzodioxol-4-yl)-1-methyl-3-oxo-1,3-dihydro-2,1-benzisothiazole-5-sulfonamide]	80%	1000 nM
Cn1ccc(S(=O)(=O)Nc2ccccc2NS(=O)(=O)c2ccc3c(c2)c(=O)sn3C)n1 [1-methyl-N-(2-{[(1-methyl-1H-pyrazol-3-yl)sulfonyl]amino}phenyl)-3-oxo-1,3-dihydro-2,1-benzisothiazole-5-sulfonamide]	53%	1680 nM
Cn1cnc(S(=O)(=O)Nc2ccccc2NS(=O)(=O)c2ccc3c(c2)c(=O)sn3C)c1 [1-methyl-N-(2-{[(1-methyl-1H-imidazol-4-yl)sulfonyl]amino}phenyl)-3-oxo-1,3-dihydro-2,1-benzisothiazole-5-sulfonamide]	99%	963 nM

Continued, values first:

CCR2 % ANTAG	IC50	SMILES
85%	425 nM	CC(C)c1ccc(NS(=O)(=O)c2cccs2)c(NS(=O)(=O)c2ccc3c(c2)c(=O)sn3C)c1 [N-{5-isopropyl-2-[(2-thienylsulfonyl)amino]phenyl}-1-methyl-3-oxo-1,3-dihydro-2,1-benzisothiazole-5-sulfonamide]
96%	2180 nM	Cn1sc(=O)c2cc(S(=O)(=O)Nc3cc4ccccc4cc3NS(=O)(=O)c3cccs3)ccc21 [1-methyl-3-oxo-N-{3-[(2-thienylsulfonyl)amino]-2-naphthyl}-1,3-dihydro-2,1-benzisothiazole-5-sulfonamide]
99%	361 nM	Cn1sc(=O)c2cc(S(=O)(=O)Nc3cc(Cl)c(Cl)cc3NS(=O)(=O)c3cccs3)ccc21 [N-{4,5-dichloro-2-[(2-thienylsulfonyl)amino]phenyl}-1-methyl-3-oxo-1,3-dihydro-2,1-benzisothiazole-5-sulfonamide]
83%	402 nM	COc1cccc(S(=O)(=O)Nc2ccc(Cl)cc2NS(=O)(=O)c2ccc3c(c2)c(=O)sn3C)c1 [N-(5-chloro-2-{[(3-methoxyphenyl)sulfonyl]amino}phenyl)-1-methyl-3-oxo-1,3-dihydro-2,1-benzisothiazole-5-sulfonamide]
95%	497 nM	Cc1ccc(S(=O)(=O)Nc2ccc(Cl)cc2NS(=O)(=O)c2ccc3c(c2)c(=O)sn3C)s1 [N-(5-chloro-2-{[(5-methyl-2-thienyl)sulfonyl]amino}phenyl)-1-methyl-3-oxo-1,3-dihydro-2,1-benzisothiazole-5-sulfonamide]
59%	2720 nM	Cn1sc(=O)c2cc(S(=O)(=O)Nc3cc(C#N)ccc3NS(=O)(=O)c3cccs3)ccc21 [N-{5-cyano-2-[(2-thienylsulfonyl)amino]phenyl}-1-methyl-3-oxo-1,3-dihydro-2,1-benzisothiazole-5-sulfonamide]
105%	471 nM	Cn1sc(=O)c2cc(S(=O)(=O)Nc3c(F)cccc3NS(=O)(=O)c3cccs3)ccc21 [N-{2-fluoro-6-[(2-thienylsulfonyl)amino]phenyl}-1-methyl-3-oxo-1,3-dihydro-2,1-benzisothiazole-5-sulfonamide]
102%	393 nM	Cn1sc(=O)c2cc(S(=O)(=O)Nc3ccc(Cl)cc3NS(=O)(=O)c3cccs3)ccc21 [N-{4-chloro-2-[(2-thienylsulfonyl)amino]phenyl}-1-methyl-3-oxo-1,3-dihydro-2,1-benzisothiazole-5-sulfonamide]
48%	1010 nM	Cn1sc(=O)c2cc(S(=O)(=O)Nc3cc(Cl)cnc3NS(=O)(=O)c3cccs3)ccc21 [N-{5-chloro-2-[(2-thienylsulfonyl)amino]pyridin-3-yl}-1-methyl-3-oxo-1,3-dihydro-2,1-benzisothiazole-5-sulfonamide]
76%	2410 nM	COC(=O)c1ccc(NS(=O)(=O)c2cccs2)c(NS(=O)(=O)c2ccc3c(c2)c(=O)sn3C)c1 [methyl 3-{[(1-methyl-3-oxo-1,3-dihydro-2,1-benzisothiazol-5-yl)sulfonyl]amino}-4-[(2-thienylsulfonyl)amino]benzoate]

Source: US8524745B2 (Allergan, Inc., priority 2011, dated 2013)
